Experimental data from PMC12566511, “The Evaluation of (1R,4R,7R,10R)-α,α′,α″,α‴-Tetramethyl-1,4,7,10-tetraazacyclododecane-1,4,7,10-tetraacetic Acid (DOTMA) as a Chelator for Zirconium-89” (Molecules, 2025).
Entries after “also recorded” stand apart in the source; their conditions may differ.

Experiments:
[1] = In vitro metal competition study; assay type: physicochemical; conditions: for % Intact of [^89Zr]Zr-Complex (n = 3): PBS pH 7.4, 37 °C, radio-ITLC
Method: To separate solutions of metal cations (iron(III) chloride, cobalt(II) chloride, zinc(II) chloride, copper(II) chloride, magnesium(II) chloride, gallium(III) nitrate, and gadolinium(III) chloride) (1.0 mM, 200 μL), [^89Zr]Zr-DOTMA complex (0.1 mM, 20 μL, 110−119 μCi, 4.1–4.4 MBq) in PBS (pH 7.4) was added. The resulting solutions (n = 3) were incubated at 37 °C for 7 days in a thermomixer. Dissociation of ^89Zr from [^89Zr]Zr-DOTMA complex was monitored by radio-TLC at 0, 1, 3, 5, and 7 days using radio-TLC, Varian ITLC-SA strips, 50 mM EDTA (pH 5) as the mobile phase, and gamma counting. All studies were performed in triplicate.

[2] = Partition coefficient (LogP), water/octanol partition method; assay type: physicochemical; conditions: octanol/water (pH 5.5), room temperature, n = 5
Method: The partition coefficient (LogP) was determined by adding 5 μL of [^89Zr]Zr-DOTMA (~5 μCi; 0.19 MBq) to a mixture of 500 μL of octanol and 500 μL of water (pH 5.5). The resulting solutions (n = 5) were vigorously vortexed for 5 min at room temperature, then centrifuged for 5 min to ensure complete separation of layers. From each of the five sets, a 50 μL aliquot was removed from each phase into new tubes and counted separately in a gamma counter. Each organic phase was washed with water to remove any radioactivity remaining in the organic phase before gamma counting. The partition coefficient was calculated as a ratio of counts in the octanol fraction to counts in the water fraction. The LogP values were reported as an average of five measurements.

CC(C(=O)[O-])N1CCN(C(C)C(=O)[O-])CCN(C(C)C(=O)[O-])CCN(C(C)C(=O)[O-])CC1.[89Zr+4] (stereo not shown) [[^89Zr]Zr-DOTMA]
% Intact of [^89Zr]Zr-Complex (n = 3) ([1]; Co^2+, 0 h): ≥99.99%
% Intact of [^89Zr]Zr-Complex (n = 3) ([1]; Co^2+, 1 d): ≥99.99%
% Intact of [^89Zr]Zr-Complex (n = 3) ([1]; Co^2+, 3 d): ≥99.99%
% Intact of [^89Zr]Zr-Complex (n = 3) ([1]; Co^2+, 5 d): ≥99.99%
% Intact of [^89Zr]Zr-Complex (n = 3) ([1]; Co^2+, 7 d): ≥99.99%
% Intact of [^89Zr]Zr-Complex (n = 3) ([1]; Cu^2+, 0 h): ≥99.99%
% Intact of [^89Zr]Zr-Complex (n = 3) ([1]; Cu^2+, 1 d): ≥99.99%
% Intact of [^89Zr]Zr-Complex (n = 3) ([1]; Cu^2+, 3 d): ≥99.99%
% Intact of [^89Zr]Zr-Complex (n = 3) ([1]; Cu^2+, 5 d): ≥99.99%
% Intact of [^89Zr]Zr-Complex (n = 3) ([1]; Cu^2+, 7 d): ≥99.99%
% Intact of [^89Zr]Zr-Complex (n = 3) ([1]; Fe^3+, 0 h): ≥99.99%
% Intact of [^89Zr]Zr-Complex (n = 3) ([1]; Fe^3+, 1 d): ≥99.99%
% Intact of [^89Zr]Zr-Complex (n = 3) ([1]; Fe^3+, 3 d): ≥99.99%
% Intact of [^89Zr]Zr-Complex (n = 3) ([1]; Fe^3+, 5 d): ≥99.99%
% Intact of [^89Zr]Zr-Complex (n = 3) ([1]; Fe^3+, 7 d): ≥99.99%
demetallation when challenged with high concentrations of metal ions (in words) ([1]; Fe^3+, Co^2+, Zn^2+, Cu^2+, Mg^2+, Ga^3+ or Gd^3+ ions, seven-day time course): inert; also recorded: no demetallation
% Intact of [^89Zr]Zr-Complex (n = 3) ([1]; Ga^3+, 0 h): ≥99.99%
% Intact of [^89Zr]Zr-Complex (n = 3) ([1]; Ga^3+, 1 d): ≥99.99%
% Intact of [^89Zr]Zr-Complex (n = 3) ([1]; Ga^3+, 3 d): ≥99.99%
% Intact of [^89Zr]Zr-Complex (n = 3) ([1]; Ga^3+, 5 d): ≥99.99%
% Intact of [^89Zr]Zr-Complex (n = 3) ([1]; Ga^3+, 7 d): ≥99.99%
% Intact of [^89Zr]Zr-Complex (n = 3) ([1]; Gd^3+, 0 h): ≥99.99%
% Intact of [^89Zr]Zr-Complex (n = 3) ([1]; Gd^3+, 1 d): ≥99.99%
% Intact of [^89Zr]Zr-Complex (n = 3) ([1]; Gd^3+, 3 d): ≥99.99%
% Intact of [^89Zr]Zr-Complex (n = 3) ([1]; Gd^3+, 5 d): ≥99.99%
% Intact of [^89Zr]Zr-Complex (n = 3) ([1]; Gd^3+, 7 d): ≥99.99%
% Intact of [^89Zr]Zr-Complex (n = 3) ([1]; Mg^2+, 0 h): ≥99.99%
% Intact of [^89Zr]Zr-Complex (n = 3) ([1]; Mg^2+, 1 d): ≥99.99%
% Intact of [^89Zr]Zr-Complex (n = 3) ([1]; Mg^2+, 3 d): ≥99.99%
% Intact of [^89Zr]Zr-Complex (n = 3) ([1]; Mg^2+, 5 d): ≥99.99%
% Intact of [^89Zr]Zr-Complex (n = 3) ([1]; Mg^2+, 7 d): ≥99.99%
% Intact of [^89Zr]Zr-Complex (n = 3) ([1]; Zn^2+, 0 h): ≥99.99%
% Intact of [^89Zr]Zr-Complex (n = 3) ([1]; Zn^2+, 1 d): ≥99.99%
% Intact of [^89Zr]Zr-Complex (n = 3) ([1]; Zn^2+, 3 d): ≥99.99%
% Intact of [^89Zr]Zr-Complex (n = 3) ([1]; Zn^2+, 5 d): ≥99.99%
% Intact of [^89Zr]Zr-Complex (n = 3) ([1]; Zn^2+, 7 d): ≥99.99%
LogP [2]: −2.97± 0.02
